Experiments:
[1] = molecular target: T1, sGC α1/β1 heterodimer (Homo sapiens, UniProt Q02108+Q02153); test: Cell-based sGC functional assay (CASA assay): cGMP generation in CHO-K1/sGC cells, HTRF detection; settings: for Emax: CHO-K1, percent activation relative to standard Compound A in CHO-K1/sGC cells, read-out: % Act.; for EC50: inflection point (IP) of cGMP generation in CHO-K1/sGC cells, 4P fit, activity expressed as percentage of Compound A
T1 construct: expressed in transfected cells; host or cells: CHO-K1 (clone #7, CHO-K1/sGC)
T1 sequence (Q02108 1-690): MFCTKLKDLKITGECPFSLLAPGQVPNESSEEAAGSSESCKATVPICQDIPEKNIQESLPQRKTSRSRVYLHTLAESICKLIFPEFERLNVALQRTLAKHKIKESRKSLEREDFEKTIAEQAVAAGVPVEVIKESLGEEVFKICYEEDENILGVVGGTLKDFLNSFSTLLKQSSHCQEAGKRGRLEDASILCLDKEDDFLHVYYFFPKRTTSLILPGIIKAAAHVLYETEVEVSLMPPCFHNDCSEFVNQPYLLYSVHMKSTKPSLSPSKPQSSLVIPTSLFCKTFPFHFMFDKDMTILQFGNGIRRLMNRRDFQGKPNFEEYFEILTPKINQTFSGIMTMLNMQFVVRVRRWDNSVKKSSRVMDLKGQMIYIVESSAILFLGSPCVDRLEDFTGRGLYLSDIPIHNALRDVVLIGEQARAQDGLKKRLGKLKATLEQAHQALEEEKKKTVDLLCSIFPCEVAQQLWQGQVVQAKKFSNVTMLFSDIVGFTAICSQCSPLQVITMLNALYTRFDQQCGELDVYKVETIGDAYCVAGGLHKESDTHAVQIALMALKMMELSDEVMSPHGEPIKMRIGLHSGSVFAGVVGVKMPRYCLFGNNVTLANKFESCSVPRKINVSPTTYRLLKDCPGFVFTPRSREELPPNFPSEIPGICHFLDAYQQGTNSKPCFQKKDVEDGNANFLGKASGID
T1 sequence (Q02153 1-619): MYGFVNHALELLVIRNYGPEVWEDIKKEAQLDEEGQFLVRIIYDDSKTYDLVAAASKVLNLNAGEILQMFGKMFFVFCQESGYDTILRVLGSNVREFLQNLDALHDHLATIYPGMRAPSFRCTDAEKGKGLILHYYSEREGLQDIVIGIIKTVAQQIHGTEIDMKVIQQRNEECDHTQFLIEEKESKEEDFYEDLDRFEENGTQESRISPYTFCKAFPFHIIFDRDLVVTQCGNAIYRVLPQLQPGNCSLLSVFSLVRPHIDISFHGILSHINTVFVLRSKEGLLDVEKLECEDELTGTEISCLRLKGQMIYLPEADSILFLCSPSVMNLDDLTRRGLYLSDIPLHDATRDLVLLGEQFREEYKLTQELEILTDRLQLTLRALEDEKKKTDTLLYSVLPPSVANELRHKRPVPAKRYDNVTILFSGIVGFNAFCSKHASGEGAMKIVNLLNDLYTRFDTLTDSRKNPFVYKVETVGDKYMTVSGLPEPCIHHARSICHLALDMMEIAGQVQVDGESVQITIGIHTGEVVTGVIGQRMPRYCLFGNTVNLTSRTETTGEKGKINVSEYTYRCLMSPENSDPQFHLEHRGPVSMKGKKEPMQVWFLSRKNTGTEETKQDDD
Summary of the method: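 cGMP was quantified by HTRF after 1 hr, 37° C exposure of thawed CHO-K1 cells expressing sGC α1/β1 to compound, with or without 1 μM DETA-NO. IBMX (0.5 mM) blocked cGMP breakdown, and DMSO was 2.5% final. Percent of standard Compound A's maximal cGMP was fitted (4P) for inflection point.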

[2] = system: Spontaneously hypertensive rats (SHR); test: Acute efficacy in spontaneously hypertensive rats (SHR): telemetry blood pressure lowering after a single oral dose; assay type: in vivo, rat
Summary of the method: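 Values are the maximum peak fall in systolic pressure after one oral dose (mpk), computed hourly against baseline from a vehicle dose given the day before. Rats were conscious, male, spontaneously hypertensive, with femoral-aortic telemetry recording 30 s every 10 min, 14 days post-surgery.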

Emax [1] [%]	EC50 [1] [nM]	Structure (SMILES)	Maximum peak decrease of systolic blood pressure (SBP) in SHR, Cat. ([2]; P.O. 1.0 mpk)	Maximum peak decrease of systolic blood pressure (SBP) in SHR, Cat. ([2]; P.O. 0.3 mpk)	Maximum peak decrease of systolic blood pressure (SBP) in SHR, Cat. ([2]; P.O. 3.0 mpk)
88	501	COc1cn2cc(-c3nc(N)c4c(n3)NC(=O)C4(C)c3ccc(F)cn3)nc(CCC(F)(F)C(F)(F)F)c2n1 (stereo not drawn) [Example 175B, 4-amino-5-(5-fluoropyridin-2-yl)-2-(2-methoxy-8-(3,3,4,4,4-pentafluorobutyl)imidazo [1,2-a]pyrazin-6-yl)-5-methyl-5H-pyrrolo[2,3-d]pyrimidin-6(7H)-one]	A (Category A=SBP in SHRs<20 mmHg)		
131	43	Nc1nc(-c2cn3ccnc3c(CCC(F)(F)C(F)(F)F)n2)nc2c1C(c1ccc(F)cc1)(C1CC1)C(=O)N2 (stereo not drawn) [Example 233B, 4-amino-5-cyclopropyl-5-(4-fluorophenyl)-2-(8-(3,3,4,4,4-pentafluorobutyl)imidazo [1,2-a]pyrazin-6-yl)-5H-pyrrolo[2,3-d]pyrimidin-6(7H)-one]		B (Category B=SBP in SHRs 20-40 mmHg)	
114	128	CC1(c2ccc(F)cn2)C(=O)Nc2nc(-c3cn4ccnc4c(CCC(F)(F)C(F)(F)F)n3)nc(N)c21 (stereo not drawn) [Example 246B, 4-amino-5-(5-fluoropyridin-2-yl)-5-methyl-2-(8-(3,3,4,4,4-pentafluorobutyl)imidazo [1,2-a]pyrazin-6-yl)-5H-pyrrolo[2,3-d]pyrimidin-6(7H)-one]	B (Category B=SBP in SHRs 20-40 mmHg)		
168	1030	Nc1nc(-c2cn3ccnc3c(CCC(F)(F)C(F)(F)F)n2)nc2c1C(c1cncc(F)c1)(C1CC1)C(=O)N2 (stereo not drawn) [Example 353B, 4-amino-5-cyclopropyl-5-(5-fluoropyridin-3-yl)-2-(8-(3,3,4,4,4-pentafluorobutyl)imidazo[1,2-a]pyrazin-6-yl)-5H-pyrrolo[2,3-d]pyrimidin-6(7H)-one]			A (Category A=SBP in SHRs<20 mmHg)
134	176	CC1(c2ccc(F)cc2)C(=O)Nc2nc(-c3cn4ccnc4c(CCC(F)(F)F)n3)nc(N)c21 (stereo not drawn) [Example 184A, 4-amino-5-(4-fluorophenyl)-5-methyl-2-(8-(3,3,3-trifluoropropyl)imidazo[1,2-a]pyrazin-6-yl)-5H-pyrrolo[2,3-d]pyrimidin-6(7H)-one]	B (Category B=SBP in SHRs 20-40 mmHg)		
129	43	CCCc1nc(-c2nc(N)c3c(n2)NC(=O)C3(c2ccc(Cl)cc2F)C2CC2)cn2ccnc12 (stereo not drawn) [Example 360A, 4-amino-5-(4-chloro-2-fluorophenyl)-5-cyclopropyl-2-(8-propylimidazo[1,2-a]pyrazin-6-yl)-5H-pyrrolo[2,3-d]pyrimidin-6(7H)-one]			B (Category B=SBP in SHRs 20-40 mmHg)
107	79	COc1cn2cc(-c3nc(N)c4c(n3)NC(=O)C4(C)c3ccc(F)cc3)nc(CCCC(F)(F)F)c2n1 (stereo not drawn) [Example 176A, 4-amino-5-(4-fluorophenyl)-2-(2-methoxy-8-(4,4,4-trifluorobutyl)imidazo[1,2-a]pyrazin-6-yl)-5-methyl-5H-pyrrolo[2,3-d]pyrimidin-6(7H)-one]	B (Category B=SBP in SHRs 20-40 mmHg)		
106	208	CCc1ccc(C2(C)C(=O)Nc3nc(-c4cn5ccnc5c(CCC(F)(F)C(F)(F)F)n4)nc(N)c32)cn1 (stereo not drawn) [Example 243B, 4-amino-5-(6-ethylpyridin-3-yl)-5-methyl-2-(8-(3,3,4,4,4-pentafluorobutyl)imidazo [1,2-a]pyrazin-6-yl)-5H-pyrrolo[2,3-d]pyrimidin-6(7H)-one]	A (Category A=SBP in SHRs<20 mmHg)		
148	36	Nc1nc(-c2cn3ccnc3c(CCC(F)(F)C(F)(F)F)n2)nc2c1C(c1ccc(Cl)cc1)(C1CC1)C(=O)N2 (stereo not drawn) [Example 235B, 4-amino-5-(4-chlorophenyl)-5-cyclopropyl-2-(8-(3,3,4,4,4-pentafluorobutyl)imidazo [1,2-a]pyrazin-6-yl)-5H-pyrrolo[2,3-d]pyrimidin-6(7H)-one]		B (Category B=SBP in SHRs 20-40 mmHg)	

More lines, now with the values behind:

Structure (SMILES)	Emax [1] [%]	EC50 [1] [nM]	Maximum peak decrease of systolic blood pressure (SBP) in SHR, Cat. ([2]; P.O. 1.0 mpk)	Maximum peak decrease of systolic blood pressure (SBP) in SHR, Cat. ([2]; P.O. 0.3 mpk)	Maximum peak decrease of systolic blood pressure (SBP) in SHR, Cat. ([2]; P.O. 3.0 mpk)
Nc1nc(-c2cn3ccnc3cn2)nc2c1C(c1ccc(Cl)c(F)c1)(C1CC1)C(=O)N2 (stereo not drawn) [Example 137B, 4-amino-5-(4-chloro-3-fluorophenyl)-5-cyclopropyl-2-(imidazo[1,2-a]pyrazin-6-yl)-5H-pyrrolo[2,3-d]pyrimidin-6(7H)-one]	108	135	B (Category B=SBP in SHRs 20-40 mmHg)		
CCCc1nc(-c2nc(N)c3c(n2)NC(=O)C3(C)c2ccc(Cl)cc2)cn2ccnc12 (single isomer, unassigned) [Example 2A, 4-Amino-5-(4-chlorophenyl)-5-methyl-2-(8-propylimidazo[1,2-a]pyrazin-6-yl)-5H-pyrrolo[2,3-d]pyrimidin-6(7H)-one]	74	105	C (Category C=SBP in SHRs>40 mmHg)		
CC1(c2ccc(F)cc2)C(=O)Nc2nc(-c3cn4ccnc4cn3)nc(N)c21 (stereo not drawn) [Example 134A, 4-amino-5-(4-fluorophenyl)-2-(imidazo[1,2-a]pyrazin-6-yl)-5-methyl-5H-pyrrolo[2,3-d]pyrimidin-6(7H)one]	118	627			B (Category B=SBP in SHRs 20-40 mmHg)
Cc1cn2cc(-c3nc(N)c4c(n3)NC(=O)C4(C)c3ccc(F)cc3)nc(CCC(F)(F)C(F)(F)F)c2n1 (stereo not drawn) [Example 170A, 4-amino-5-(4-fluorophenyl)-5-methyl-2-(2-methyl-8-(3,3,4,4,4-pentafluorobutyl)imidazo [1,2-a]pyrazin-6-yl)-5H-pyrrolo[2,3-d]pyrimidin-6(7H)-one]	104	57	B (Category B=SBP in SHRs 20-40 mmHg)		
CCCCc1nc(-c2nc(N)c3c(n2)NC(=O)C3(C)c2ccc(Cl)cc2)cn2ccnc12 (stereo not drawn) [Example 10A, 4-amino-2-(8-butylimidazo[1,2-a]pyrazin-6-yl)-5-(4-chlorophenyl)-5-methyl-5H-pyrrolo[2,3-d]pyrimidin-6(7H)-one]	120	56		C (Category C=SBP in SHRs>40 mmHg)	
Cc1cnc2c(CCC(F)(F)C(F)(F)F)nc(-c3nc(N)c4c(n3)NC(=O)C4(C)c3ccc(F)cc3)cn12 (stereo not drawn) [Example 171A, 4-amino-5-(4-fluorophenyl)-5-methyl-2-(3-methyl-8-(3,3,4,4,4-pentafluorobutyl)imidazo [1,2-a]pyrazin-6-yl)-5H-pyrrolo[2,3-d]pyrimidin-6(7H)-one]	126	80	B (Category B=SBP in SHRs 20-40 mmHg)		
CC1(C(=O)NC2CC2)C(=O)Nc2nc(-c3cn4ccnc4c(CCC(F)(F)C(F)(F)F)n3)nc(N)c21 (stereo not drawn) [Example 60A, 4-amino-N-cyclopropyl-5-methyl-6-oxo-2-(8-(3,3,4,4,4-pentafluorobutyl)imidazo[1,2-a]pyrazin-6-yl)-6,7-dihydro-5H-pyrrolo[2,3-d]pyrimidine-5-carboxamide]	41	88	A (Category A=SBP in SHRs<20 mmHg)		
